Among the data in ChEMBL document CHEMBL5291721, “A preclinical secondary pharmacology resource illuminates target-adverse drug reaction associations of marketed drugs” (Nat Commun, 2023) are AC50 values, retold here.

For one assay, the target named is Melanocortin receptor 3 (Homo sapiens, UniProt P41968).
Assay [1] concerns the target T1, Alpha-2A adrenergic receptor (Homo sapiens, UniProt P08913).
T1 sequence (P08913 whole entry): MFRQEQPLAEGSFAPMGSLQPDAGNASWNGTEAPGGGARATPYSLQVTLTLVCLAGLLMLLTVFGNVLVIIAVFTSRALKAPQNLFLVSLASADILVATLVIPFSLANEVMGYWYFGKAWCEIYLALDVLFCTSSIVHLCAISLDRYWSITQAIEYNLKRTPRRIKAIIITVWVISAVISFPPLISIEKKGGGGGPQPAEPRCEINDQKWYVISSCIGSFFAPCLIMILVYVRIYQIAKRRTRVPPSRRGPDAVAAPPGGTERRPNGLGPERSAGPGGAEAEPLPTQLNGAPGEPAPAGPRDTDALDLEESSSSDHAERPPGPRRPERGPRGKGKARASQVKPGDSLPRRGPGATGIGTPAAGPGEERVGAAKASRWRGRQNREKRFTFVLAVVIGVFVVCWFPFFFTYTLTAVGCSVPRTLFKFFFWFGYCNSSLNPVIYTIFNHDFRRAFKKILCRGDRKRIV
The class given is functional, cell-based.

The target of the next assay is T2, Glucocorticoid receptor (Homo sapiens, UniProt P04150).
T2 sequence (P04150 whole entry): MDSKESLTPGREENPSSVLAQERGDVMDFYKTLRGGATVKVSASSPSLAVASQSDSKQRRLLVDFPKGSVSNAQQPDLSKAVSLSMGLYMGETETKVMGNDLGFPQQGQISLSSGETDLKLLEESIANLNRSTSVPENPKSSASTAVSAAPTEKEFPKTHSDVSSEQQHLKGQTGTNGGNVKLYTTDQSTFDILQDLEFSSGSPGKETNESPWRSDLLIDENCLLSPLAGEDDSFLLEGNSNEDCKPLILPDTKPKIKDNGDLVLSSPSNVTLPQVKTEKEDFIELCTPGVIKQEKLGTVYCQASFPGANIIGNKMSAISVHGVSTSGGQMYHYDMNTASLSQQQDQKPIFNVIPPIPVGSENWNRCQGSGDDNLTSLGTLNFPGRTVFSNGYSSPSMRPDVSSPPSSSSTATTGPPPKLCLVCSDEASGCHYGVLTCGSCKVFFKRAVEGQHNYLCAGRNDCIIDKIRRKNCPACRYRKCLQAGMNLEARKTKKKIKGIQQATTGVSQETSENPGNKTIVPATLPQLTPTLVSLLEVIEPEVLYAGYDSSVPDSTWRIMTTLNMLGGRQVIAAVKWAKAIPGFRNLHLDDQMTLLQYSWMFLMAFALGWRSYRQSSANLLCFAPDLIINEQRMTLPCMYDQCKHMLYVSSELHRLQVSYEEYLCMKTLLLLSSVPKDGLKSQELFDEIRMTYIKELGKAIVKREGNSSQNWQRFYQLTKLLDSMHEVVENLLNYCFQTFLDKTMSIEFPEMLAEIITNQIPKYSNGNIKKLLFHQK

The target of assay [2] is cGMP-inhibited 3',5'-cyclic phosphodiesterase 3A (Homo sapiens, UniProt Q14432). The class given is functional.
Chain of cGMP-inhibited 3',5'-cyclic phosphodiesterase 3A (Q14432 whole entry): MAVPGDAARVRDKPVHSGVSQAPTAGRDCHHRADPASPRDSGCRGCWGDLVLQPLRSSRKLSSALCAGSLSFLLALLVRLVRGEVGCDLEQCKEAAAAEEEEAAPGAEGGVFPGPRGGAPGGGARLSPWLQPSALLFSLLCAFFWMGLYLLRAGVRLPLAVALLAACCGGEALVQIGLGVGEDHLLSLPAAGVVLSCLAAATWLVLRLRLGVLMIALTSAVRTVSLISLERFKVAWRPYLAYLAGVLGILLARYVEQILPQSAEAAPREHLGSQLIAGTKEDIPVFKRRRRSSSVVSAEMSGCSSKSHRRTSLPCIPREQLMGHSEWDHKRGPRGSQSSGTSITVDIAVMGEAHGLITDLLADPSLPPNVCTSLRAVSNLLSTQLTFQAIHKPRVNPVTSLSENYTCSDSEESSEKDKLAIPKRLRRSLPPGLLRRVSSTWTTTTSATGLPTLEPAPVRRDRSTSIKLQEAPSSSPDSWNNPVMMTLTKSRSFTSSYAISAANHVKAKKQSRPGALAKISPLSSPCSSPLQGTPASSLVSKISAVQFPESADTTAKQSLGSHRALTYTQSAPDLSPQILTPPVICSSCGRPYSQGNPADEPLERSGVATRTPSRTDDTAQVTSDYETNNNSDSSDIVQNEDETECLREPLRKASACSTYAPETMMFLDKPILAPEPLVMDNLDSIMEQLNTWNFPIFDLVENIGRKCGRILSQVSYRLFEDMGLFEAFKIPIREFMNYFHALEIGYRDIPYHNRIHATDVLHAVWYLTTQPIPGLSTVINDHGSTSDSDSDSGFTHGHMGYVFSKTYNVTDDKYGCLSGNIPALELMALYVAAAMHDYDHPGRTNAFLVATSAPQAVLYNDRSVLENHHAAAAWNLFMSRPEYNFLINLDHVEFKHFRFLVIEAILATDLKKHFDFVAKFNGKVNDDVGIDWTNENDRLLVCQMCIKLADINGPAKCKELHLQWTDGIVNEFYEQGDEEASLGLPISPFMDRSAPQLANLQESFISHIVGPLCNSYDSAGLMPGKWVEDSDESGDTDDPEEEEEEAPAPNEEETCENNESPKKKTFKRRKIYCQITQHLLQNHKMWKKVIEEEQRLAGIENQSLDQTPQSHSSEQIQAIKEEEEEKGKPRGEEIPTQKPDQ
Assay [3] has as its target T3, Gastrin/cholecystokinin type B receptor (Homo sapiens, UniProt P32239).
T3 sequence (P32239 whole entry): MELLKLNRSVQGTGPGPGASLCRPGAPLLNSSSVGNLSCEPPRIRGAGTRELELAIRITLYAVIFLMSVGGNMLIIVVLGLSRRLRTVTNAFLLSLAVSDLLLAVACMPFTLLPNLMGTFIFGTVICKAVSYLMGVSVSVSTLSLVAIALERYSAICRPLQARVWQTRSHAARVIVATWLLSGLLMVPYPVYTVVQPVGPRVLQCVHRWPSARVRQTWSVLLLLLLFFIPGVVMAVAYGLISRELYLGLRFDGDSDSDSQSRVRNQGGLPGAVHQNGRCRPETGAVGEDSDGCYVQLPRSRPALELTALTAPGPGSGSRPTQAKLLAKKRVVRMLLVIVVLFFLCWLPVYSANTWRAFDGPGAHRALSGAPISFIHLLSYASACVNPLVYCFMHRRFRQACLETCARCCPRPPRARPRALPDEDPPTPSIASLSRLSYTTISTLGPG

Assay [4] has as its target Sodium-dependent noradrenaline transporter (Homo sapiens, UniProt P23975).

Molecules are shown by their SMILES.
Also: assay procedure not described here.

Chain of Melanocortin receptor 3 (P41968 whole entry): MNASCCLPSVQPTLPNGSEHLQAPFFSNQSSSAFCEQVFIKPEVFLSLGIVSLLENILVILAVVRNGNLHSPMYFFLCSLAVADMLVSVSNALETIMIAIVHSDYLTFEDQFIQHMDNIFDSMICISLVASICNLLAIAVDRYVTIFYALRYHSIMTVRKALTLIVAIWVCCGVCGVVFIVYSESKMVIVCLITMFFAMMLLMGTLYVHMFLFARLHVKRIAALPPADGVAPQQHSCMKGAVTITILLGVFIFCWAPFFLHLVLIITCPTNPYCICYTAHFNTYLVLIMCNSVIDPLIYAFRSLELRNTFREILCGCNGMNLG
Chain of Sodium-dependent noradrenaline transporter (P23975 whole entry): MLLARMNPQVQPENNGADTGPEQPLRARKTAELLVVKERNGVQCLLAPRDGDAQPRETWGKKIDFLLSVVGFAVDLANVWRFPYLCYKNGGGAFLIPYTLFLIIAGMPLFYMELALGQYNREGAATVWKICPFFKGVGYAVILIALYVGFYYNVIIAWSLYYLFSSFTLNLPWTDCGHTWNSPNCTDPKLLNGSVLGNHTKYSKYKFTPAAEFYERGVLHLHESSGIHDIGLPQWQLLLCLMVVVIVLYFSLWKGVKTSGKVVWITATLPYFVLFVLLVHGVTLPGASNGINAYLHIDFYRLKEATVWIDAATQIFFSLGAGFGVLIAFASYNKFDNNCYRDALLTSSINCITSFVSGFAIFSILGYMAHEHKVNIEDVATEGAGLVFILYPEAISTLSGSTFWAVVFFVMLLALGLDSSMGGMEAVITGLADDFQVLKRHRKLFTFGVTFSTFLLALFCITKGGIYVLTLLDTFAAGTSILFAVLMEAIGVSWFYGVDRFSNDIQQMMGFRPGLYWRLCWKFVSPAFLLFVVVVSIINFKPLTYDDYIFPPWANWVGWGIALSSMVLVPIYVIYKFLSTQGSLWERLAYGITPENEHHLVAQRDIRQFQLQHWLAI

As to `C[N+](C)(C)CCOP(=O)([O-])OC[C@H](O)CO`, the AC50 (on Melanocortin receptor 3; in assay [1]; at Glucocorticoid receptor; in assay [2]; in assay [3]; in assay [4]) was above 30 µM throughout.
Take `CN(C)C/C=C/C(=O)Nc1cc2c(Nc3ccc(F)c(Cl)c3)ncnc2cc1O[C@H]1CCOC1` [AFATINIB]: the half-maximal activity concentration (AC50) (as a rule, the concentration giving half of the maximal activity seen) on Melanocortin receptor 3 is 28 µM; at Glucocorticoid receptor it was above 30 µM; in assay [2], above 30 µM; in assay [3], above 30 µM; in assay [4] it was above 30 µM.
Regarding `CCC1(c2ccc(N)cc2)CCC(=O)NC1=O` (stereo unspecified) [AMINOGLUTETHIMIDE], the AC50 is above 30 µM at Melanocortin receptor 3; above 30 µM in assay [1]; above 30 µM on Glucocorticoid receptor; 10 µM in assay [2]; above 30 µM in assay [3]; above 30 µM in assay [4].
`CC1=C(C(=O)OC(C)C)C(c2cccc([N+](=O)[O-])c2)C(C(=O)OC2CN(C(c3ccccc3)c3ccccc3)C2)=C(N)N1` (stereo unspecified) [AZELNIDIPINE]: the concentration at half-maximal activity (AC50) at Melanocortin receptor 3 is above 30 µM; in assay [1] it was above 30 µM; at Glucocorticoid receptor, above 30 µM; in assay [2], above 30 µM; in assay [3], above 30 µM; in assay [4], 5.8 µM.
Consider `CC(Cc1cccc(C(F)(F)F)c1)NCCOC(=O)c1ccccc1` (stereo unspecified) [BENFLUOREX], for which the AC50 is above 30 µM at Melanocortin receptor 3, above 30 µM on Glucocorticoid receptor, above 30 µM in assay [3] and 23 µM in assay [4].
In the case of `CNCCc1ccc(OC(=O)C(C)C)c(OC(=O)C(C)C)c1` [IBOPAMINE], the AC50 (on Melanocortin receptor 3; at Glucocorticoid receptor; in assay [2]; in assay [3]; in assay [4]) was above 30 µM throughout.
Take `CCOC(=O)C1=C(C)NC(C)=C(C(=O)OCC)C1c1ccccc1/C=C/C(=O)OC(C)(C)C` [LACIDIPINE]: the concentration at half-maximal activity (AC50) (on Melanocortin receptor 3; in assay [1]; on Glucocorticoid receptor; in assay [2]; in assay [3]; in assay [4]) was above 30 µM throughout.
On to `COC(=O)C1=C(C)NC(C)=C(C(=O)OCCN2CCN(C(c3ccccc3)c3ccccc3)CC2)C1c1cccc([N+](=O)[O-])c1` (stereo unspecified) [MANIDIPINE 6300], for which the concentration at half-maximal activity (AC50) (on Melanocortin receptor 3; in assay [1]; on Glucocorticoid receptor; in assay [2]; in assay [3]; in assay [4]) was above 30 µM throughout.
Take `OC[C@H]1O[C@@H](n2cnc3c2NC=NC[C@H]3O)C[C@@H]1O` [PENTOSTATIN]: the AC50 (at Melanocortin receptor 3; in assay [1]; on Glucocorticoid receptor; in assay [2]; in assay [3]; in assay [4]) was above 30 µM throughout.
As for `Cc1cccc(C)c1NC(=O)CC12CCCN1CCC2` [PILSICAINIDE], the AC50 (at Melanocortin receptor 3; in assay [1]; on Glucocorticoid receptor; in assay [2]; in assay [3]; in assay [4]) was above 30 µM in each case.
`CC(C)c1cccc(C(C)C)c1O` [PROPOFOL]: the AC50 (at Melanocortin receptor 3; in assay [1]; in assay [2]; in assay [4]) was above 30 µM in each case.
`CN[C@@H](C)[C@@H](O)c1ccccc1` [PSEUDOEPHEDRINE]: the AC50 at Melanocortin receptor 3 is above 30 µM; in assay [1] it was above 10 µM; at Glucocorticoid receptor it was above 30 µM; in assay [2], above 30 µM; in assay [3], above 30 µM; in assay [4] it was above 10 µM.
Take `O=C1OC(OC(=O)c2cccnc2Nc2cccc(C(F)(F)F)c2)c2ccccc21` (stereo unspecified) [TALNIFLUMATE]: the half-maximal activity concentration (AC50) (on Melanocortin receptor 3; at Glucocorticoid receptor; in assay [2]; in assay [3]; in assay [4]) was above 30 µM in each case.
